Assay results as given in patent publication US20070148225A1 (ALCON, INC., priority 2005, published 2007).

System: FGFR
Assay: Kinase inhibition, cell-free enzymatic assay
Format: biochemical
Details: 1 mM ATP

- IC50: > 12.5 µM
Structure (SMILES): Cc1ccc(F)c(NC(=O)Nc2ccc(-c3cccc4[nH]nc(N)c34)cc2)c1 [RTKi, N-[4-(3-amino-1H-indazol-4-yl)phenyl]-N′-(2-fluoro-5-methylphenyl) urea]
